Data taken from US11945806B2, “Stabilization of amyloidogenic immunoglobulin light chains” (The Scripps Research Institute, priority 2019, dated 2024).

molecular target: WIL-FL (Homo sapiens, UniProt P01721); assay: Unlabeled LC Protease Sensitivity Assay (proteinase K); type: biochemical; conditions: small molecule 10 μM, WIL-FL 5 μM, proteinase K 50 nM, 2 hours at 37° C.
Summary of the method: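 Compound at 10 μM (1% DMSO) is mixed with 5 μM WIL-FL and 50 nM proteinase K in PBS pH 7.4/0.02% Pluronic F-127, 37 °C, 2 h, then quenched with PMSF. Remaining protein measured by SEC-UPLC peak area at 280 nm and expressed as fold protection relative to vehicle and no-protease controls.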

| SMILES | Protection (fold protection of LC from protease) |
| --- | --- |
| CCN(CC)c1ccc2c(C)c(CC(=O)NCCCCc3ccccc3)c(=O)oc2c1 [Compound 57, 2-(7-(diethylamino)-4-methyl-2-oxo-2H-chromen-3-yl)-N-(4-phenylbutyl)acetamide] | A (A < 0.3)) |
| CCN(CC)c1ccc2c(C)c(CC(=O)O)c(=O)oc2c1 [Compound 54, 2-(7-(diethylamino)-4-methyl-2-oxo-2H-chromen-3-yl)acetic acid] | A (A < 0.3)) |
| CCCN(C)c1ccc2c(C)cc(=O)oc2c1 [Compound 253, 4-methyl-7-(methyl(propyl)amino)-2H-chromen-2-one] | A (A < 0.3)) |
| CCN(CC)c1ccc2c(C)c(CCOC(=O)NC)c(=O)oc2c1 [Compound 79, 2-(7-(diethylamino)-4-methyl-2-oxo-2H-chromen-3-yl)ethyl methylcarbamate] | A (A < 0.3)) |
| C=CCCNc1ccc2c(C)cc(=O)oc2c1 [Compound 247, 7-(but-3-en-1-ylamino)-4-methyl-2H-chromen-2-one] | A (A < 0.3)) |
| CCN(CC)c1ccc2c(C)c(CCOC(=O)N3CCS(=O)(=O)CC3)c(=O)oc2c1 [Compound 112, 2-(7-(diethylamino)-4-methyl-2-oxo-2H-chromen-3-yl)ethyl thiomorpholine-4-carboxylate 1,1-dioxide] | A (A < 0.3)) |
| CCC(CC)c1ccc2c(C)cc(=O)oc2c1 [Compound 168, 4-methyl-7-(pentan-3-yl)-2H-chromen-2-one] | A (A < 0.3)) |
| CCN(CC)c1ccc2c(C)c(CCOC(=O)NCc3nccc4ccccc34)c(=O)oc2c1 [Compound 139, 2-(7-(diethylamino)-4-methyl-2-oxo-2H-chromen-3-yl)ethyl (isoquinolin-1-ylmethyl)carbamate] | A (A < 0.3)) |
| Cc1cc(=O)oc2cc(C(=O)NCc3c[nH]c4ccccc34)ccc12 [Compound 236, N-((1H-indol-3-yl)methyl)-4-methyl-2-oxo-2H-chromene-7-carboxamide] | A (A < 0.3)) |
| CCN(CC)c1ccc2c(C)c(CCNC(=O)OC(C)(C)C)c(=O)oc2c1 [Compound 69, Tert-butyl (2-(7-(diethylamino)-4-methyl-2-oxo-2H-chromen-3-yl)ethyl)carbamate] | A (A < 0.3)) |
| Cc1cc(=O)oc2cc(NCc3ccoc3)ccc12 [Compound 29, 7-((furan-3-ylmethyl)amino)-4-methyl-2H-chromen-2-one] | A (A < 0.3)) |
| CCN(CC)c1ccc2c(C)c(CCNC(=O)NCc3ccc(-c4ccccc4)cc3)c(=O)oc2c1 [Compound 283, 1-([1,1′-biphenyl]-4-ylmethyl)-3-(2-(7-(diethylamino)-4-methyl-2-oxo-2H-chromen-3-yl)ethyl)urea] | A (A < 0.3)) |
| CCCOc1ccc2c(C)cc(=O)oc2c1 [Compound 33, 4-methyl-7-propoxy-2H-chromen-2-one] | A (A < 0.3)) |
| CCN(CC)c1ccc2c(C)c(CCN3CC4(CCN(c5ccccc5)CC4)NC3=O)c(=O)oc2c1 [Compound 158, 3-(2-(7-(diethylamino)-4-methyl-2-oxo-2H-chromen-3-yl)ethyl)-8-phenyl-1,3,8-triazaspiro[4.5]decan-2-one] | B (3 ≤ B < 0.6) |
| Cc1cc(=O)oc2cc(OC(C)c3cccnc3)ccc12 (stereo not shown) [Compound 171, 4-methyl-7-(1-(pyridin-3-yl)ethoxy)-2H-chromen-2-one] | A (A < 0.3)) |
| CCN(CC)c1ccc2c(C)c(CC(=O)NCCc3ccccc3)c(=O)oc2c1 [Compound 55, 2-(7-(diethylamino)-4-methyl-2-oxo-2H-chromen-3-yl)-N-phenethylacetamide] | A (A < 0.3)) |
| CCN(CC)c1ccc2c(C(F)(F)F)cc(=O)oc2c1 [Compound 24] | A (A < 0.3)) |
| CCN(CC)c1ccc2c(C)c(CCOC(=O)NCc3cccc(CN(C)C)c3)c(=O)oc2c1 [Compound 135, 2-(7-(diethylamino)-4-methyl-2-oxo-2H-chromen-3-yl)ethyl (3-((dimethylamino)methyl)benzyl)carbamate] | C (C ≥ 0.6) |
| CCN(CC)c1ccc2c(C)c(CCNC(=O)NCc3cccnc3)c(=O)oc2c1 [Compound 98, 1-(2-(7-(diethylamino)-4-methyl-2-oxo-2H-chromen-3-yl)ethyl)-3-(pyridin-3-ylmethyl)urea] | C (C ≥ 0.6) |
| CCN(CC)c1ccc2c(C)c(CCN3CC4(CCN(c5nccn6ccnc56)CC4)NC3=O)c(=O)oc2c1 [Compound 223, 3-(2-(7-(diethylamino)-4-methyl-2-oxo-2H-chromen-3-yl)ethyl)-8-(imidazo[1,2-a]pyrazin-8-yl)-1,3,8-triazaspiro[4.5]decan-2-one] | C (C ≥ 0.6) |
| CCN(CC)c1ccc2c(C)c(CCN3C(=O)NC4(CCN(C(=O)c5ccc(C(N)=O)cc5)C4)C3=O)c(=O)oc2c1 (stereo not shown) [Compound 199, 4-(3-(2-(7-(diethylamino)-4-methyl-2-oxo-2H-chromen-3-yl)ethyl)-2,4-dioxo-1,3,7-triazaspiro[4.4]nonane-7-carbonyl)benzamide] | B (3 ≤ B < 0.6) |
| CCN(CC)c1ccc2c(C)c(CCOC(=O)N3CCN(S(=O)(=O)C4CC4)CC3)c(=O)oc2c1 [Compound 107, 2-(7-(diethylamino)-4-methyl-2-oxo-2H-chromen-3-yl)ethyl 4-(cyclopropylsulfonyl)piperazine-1-carboxylate] | A (A < 0.3)) |
| CCN(CC)c1ccc2c(C)c(CCC(=O)NCCc3ccccc3F)c(=O)oc2c1 [Compound 71] | A (A < 0.3)) |
| Cc1cc(=O)oc2cc(NC(C)c3ccccc3)ccc12 (stereo not shown) [Compound 39, 4-methyl-7-((1-phenylethyl)amino)-2H-chromen-2-one] | A (A < 0.3)) |
| CCN(CC)c1ccc2c(C)c(CCNC(=O)NCc3ccncc3)c(=O)oc2c1 [Compound 277, 1-(2-(7-(diethylamino)-4-methyl-2-oxo-2H-chromen-3-yl)ethyl)-3-(pyridin-4-ylmethyl)urea] | B (3 ≤ B < 0.6) |
| CCN(CC)c1ccc2c(C)c(CCOC(=O)Nc3ccc(NC(C)=O)cn3)c(=O)oc2c1 [Compound 103, 2-(7-(diethylamino)-4-methyl-2-oxo-2H-chromen-3-yl)ethyl (5-acetamidopyridin-2-yl)carbamate] | B (3 ≤ B < 0.6) |
| CCN(CC)c1ccc2c(C)c(CCNC(=O)NCc3cccc(-c4ccccc4)c3)c(=O)oc2c1 [Compound 284, 1-([1,1′-biphenyl]-3-ylmethyl)-3-(2-(7-(diethylamino)-4-methyl-2-oxo-2H-chromen-3-yl)ethyl)urea] | B (3 ≤ B < 0.6) |
| CCN(CC)c1ccc2c(C)c(CCOC(=O)N3CCC(C)(O)C3)c(=O)oc2c1 (stereo not shown) [Compound 111, 2-(7-(diethylamino)-4-methyl-2-oxo-2H-chromen-3-yl)ethyl 3-hydroxy-3-methylpyrrolidine-1-carboxylate] | A (A < 0.3)) |
